Literature values in patent US20050276865A1, “Peroxide compounds for the prevention and treatment of sexual dysfunction in humans” (priority 2004, published 2005).

What was measured:
[1] = not given; remark: listed apart in the source
[2] = test system: men with ED; conditions: injection into the corpus cavernosum (Montorsi et al. 1997)

Row | Structure (SMILES) | Irritancy as reported (NTF Chemical Repository) | Toxicity and carcinogenicity concerns (according to many studies (Haywood et al. 1991)) | Solubility in water [1] | Stability in aqueous medium ([1]; aqueous medium) | Men who achieved improved spontaneous erections and required less frequent injections [2]
1 | NC(N)=O.OO [Carbamide peroxide, carbamide peroxide] | irritant | unfounded | water-soluble | highly unstable | 
2 | CCCCC[C@H](O)/C=C/[C@H]1[C@H](O)CC(=O)[C@@H]1CCCCCCC(=O)O [prostaglandin E1] |  |  |  |  | 28%
